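The compound was tested at five concentrations on cells cultured in 96-well plates, with a 48-hour exposure period. Definition used: TGI = concentration required for complete inhibition of growth.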
Legend:
Assay in all cases: DTP human tumour cell line panel, 48 h
786-0 renal = test system: 786-0 renal
A498 renal = test system: A498 renal
A549 NSCLC = test system: A549 NSCLC
ACHN renal = test system: ACHN renal
BT-549 breast = test system: BT-549 breast
CCRF-CEM leukemia = test system: CCRF-CEM leukemia
COLO 205 colon = test system: COLO 205 colon
DU-145 prostate = test system: DU-145 prostate
EKVX NSCLC = test system: EKVX NSCLC
HCC-2998 colon = test system: HCC-2998 colon
HCT-116 colon = test system: HCT-116 colon
HCT-15 colon = test system: HCT-15 colon
HL-60(TB) leukemia = test system: HL-60(TB) leukemia
HOP-62 NSCLC = test system: HOP-62 NSCLC
HOP-92 NSCLC = test system: HOP-92 NSCLC
HS 578T breast = test system: HS 578T breast
HT29 colon = test system: HT29 colon
IGROV1 ovarian = test system: IGROV1 ovarian
K-562 leukemia = test system: K-562 leukemia
KM12 colon = test system: KM12 colon
LOX IMVI melanoma = test system: LOX IMVI melanoma
M14 melanoma = test system: M14 melanoma
MALME-3M melanoma = test system: MALME-3M melanoma
MCF7 breast = test system: MCF7 breast
MDA-MB-231 breast = test system: MDA-MB-231 breast
MDA-MB-435 = test system: MDA-MB-435
MDA-N = test system: MDA-N
MOLT-4 leukemia = test system: MOLT-4 leukemia
NCI-H23 lung = test system: NCI-H23 lung
NCI-H460 lung = test system: NCI-H460 lung
NCI-H522 lung = test system: NCI-H522 lung
NCI/ADR-RES ovarian = test system: NCI/ADR-RES ovarian
OVCAR-3 ovarian = test system: OVCAR-3 ovarian
OVCAR-5 ovarian = test system: OVCAR-5 ovarian
OVCAR-8 ovarian = test system: OVCAR-8 ovarian
PC-3 prostate = test system: PC-3 prostate
RPMI-8226 leukemia = test system: RPMI-8226 leukemia
RXF 393 renal = test system: RXF 393 renal
SF-268 CNS = test system: SF-268 CNS
SF-295 CNS = test system: SF-295 CNS
SF-539 CNS = test system: SF-539 CNS
SK-MEL-2 melanoma = test system: SK-MEL-2 melanoma
SK-MEL-28 melanoma = test system: SK-MEL-28 melanoma
SK-MEL-5 melanoma = test system: SK-MEL-5 melanoma
SK-OV-3 ovarian = test system: SK-OV-3 ovarian
SN12C renal = test system: SN12C renal
SNB-19 CNS = test system: SNB-19 CNS
SNB-75 CNS = test system: SNB-75 CNS
SW-620 colon = test system: SW-620 colon
T-47D breast = test system: T-47D breast
TK-10 renal = test system: TK-10 renal
U251 CNS = test system: U251 CNS
UACC-257 melanoma = test system: UACC-257 melanoma
UACC-62 melanoma = test system: UACC-62 melanoma
UO-31 renal = test system: UO-31 renal

N/C(=N\NC(=O)c1nc2ccccc2s1)c1ccccn1
TGI (786-0 renal): 22.9 µM
TGI (A498 renal): 36.1 µM
TGI (A549 NSCLC): > 52.7 µM
TGI (ACHN renal): 16.5 µM
TGI (BT-549 breast): > 100 µM
TGI (CCRF-CEM leukemia): > 45.6 µM
TGI (COLO 205 colon): 27.6 µM
TGI (DU-145 prostate): > 40.2 µM
TGI (EKVX NSCLC): > 63.6 µM
TGI (HCC-2998 colon): > 61.5 µM
TGI (HCT-116 colon): 19.6 µM
TGI (HCT-15 colon): 31.9 µM
TGI (HL-60(TB) leukemia): 23.4 µM
TGI (HOP-62 NSCLC): > 57.6 µM
TGI (HOP-92 NSCLC): > 100 µM
TGI (HS 578T breast): > 100 µM
TGI (HT29 colon): 50.7 µM
TGI (IGROV1 ovarian): > 100 µM
TGI (K-562 leukemia): > 77.8 µM
TGI (KM12 colon): > 100 µM
TGI (LOX IMVI melanoma): > 100 µM
TGI (M14 melanoma): 23.6 µM
TGI (MALME-3M melanoma): > 100 µM
TGI (MCF7 breast): > 63.7 µM
TGI (MDA-MB-231 breast): > 100 µM
TGI (MDA-MB-435): > 37.6 µM
TGI (MDA-N): > 100 µM
TGI (MOLT-4 leukemia): 18.7 µM
TGI (NCI-H23 lung): 52.6 µM
TGI (NCI-H460 lung): 17.9 µM
TGI (NCI-H522 lung): 44.6 µM
TGI (NCI/ADR-RES ovarian): 15.5 µM
TGI (OVCAR-3 ovarian): > 100 µM
TGI (OVCAR-5 ovarian): 65.7 µM
TGI (OVCAR-8 ovarian): > 47.2 µM
TGI (PC-3 prostate): > 100 µM
TGI (RPMI-8226 leukemia): 26.8 µM
TGI (RXF 393 renal): > 69 µM
TGI (SF-268 CNS): > 100 µM
TGI (SF-295 CNS): > 100 µM
TGI (SF-539 CNS): 15.6 µM
TGI (SK-MEL-2 melanoma): > 100 µM
TGI (SK-MEL-28 melanoma): > 100 µM
TGI (SK-MEL-5 melanoma): 21.3 µM
TGI (SK-OV-3 ovarian): 29.5 µM
TGI (SN12C renal): 18 µM
TGI (SNB-19 CNS): > 100 µM
TGI (SNB-75 CNS): > 45.1 µM
TGI (SW-620 colon): > 100 µM
TGI (T-47D breast): > 100 µM
TGI (TK-10 renal): > 100 µM
TGI (U251 CNS): > 60.9 µM
TGI (UACC-257 melanoma): > 79.8 µM
TGI (UACC-62 melanoma): 19.5 µM
TGI (UO-31 renal): 15.8 µM
